Blank lines part the entries; values can stand above or below the molecule they belong to.
How the values were obtained:
[1] = tested on: AMPD2 mRNA; assay: Silencing of AMPD2 with shRNA in HepG2 cells; format: cell-based, human
Text: An shRNA for AMPD2 was employed to silence human hepatic cells (HepG2). (FIGS. 3 and 4) The silencing vector pSM2-AMPD2 (V2HS—172668, Open Biosystems) incorporates a 22-base shRNAmir trigger designed to mimic a natural microRNA primary transcript. The target sequence is specific for human AMPD2 and has been selected based on thermodynamic criteria for optimal small RNA performance. The specific sequence is 5′-[…]-3′(SEQ ID NO: 1).
The immortalized human hepatocytes cell line, HepG2, was transfected with the silencing vector pSM2-AMPD2 using Lipofectamine LTX Plus (Invitrogen) as described by the manufacturer (FIG. 4). Briefly, cell cultures were grown to 90-95% confluence in normal growth media and in 24-well plates. Lipid-DNA complexes were prepared as per recommended protocols using growth media without serum. 100 μl of the lipid-DNA solution was added per well of attached cells and incubated for 4 hrs at 37° C. Wells were then diluted with 1.5 ml of normal growth media and incubated for an additional 24 hrs prior to addition of selective media containing 1 μg/mL Puromycin antibiotic. After 7 days, stable transfectants (clones) were selected with glass cloning rings, replated and a second colony selection was performed to provide a clean clone for analysis. Validation of AMPD2 gene knock down was performed by harvesting protein and performing a Western blot for protein expression. Clone #5 was subsequently used for the experiments and was designated as sAMPD2.
A key enzyme in Beta fatty acid oxidation, enoyl CoA hydratase-1 (ECH-1), was stimulated in control cells as well as fructose treated cells in which AMPD2 had been silenced. The inhibition of AMPD2 by sAMPD2 was accompanied by an upregulation of phosphorylated AMPkinase (Thr172) in both unstimulated and fructose stimulated hepatocytes, whereas total AMPK was not altered.
The stimulation of fat oxidation in AMPD2 knocked down hepatocytes was confirmed by measuring β hydroxybutyrate, a fat oxidation product (FIG. 5B).
The stimulation of phosphorylated AMP kinase in human hepatocytes (HepG2 cells) by silencing AMPD2 with shRNA as shown in FIG. 5A led to […] of target genes as noted by Western blot (FIG. 6A). For example, the phosphorylated form of Acetyl CoA Carboxylase (pACC) which is involved in triglyceride synthesis was induced by silencing AMPD2 in both unstimulated and fructose stimulated cells. […] Importantly, these changes blocked the triglyceride accumulation in HepG2 cells in response to fructose (FIG. 6B).
Silencing AMPD2 prevented the upregulation of KHK in response to fructose.

[2] = tested on: AMP deaminase; conditions: cited from earlier work
[3] = target: T1, adenosine deaminase (Homo sapiens, UniProt P00813); conditions: cited from earlier work
T1 sequence (P00813 1-363): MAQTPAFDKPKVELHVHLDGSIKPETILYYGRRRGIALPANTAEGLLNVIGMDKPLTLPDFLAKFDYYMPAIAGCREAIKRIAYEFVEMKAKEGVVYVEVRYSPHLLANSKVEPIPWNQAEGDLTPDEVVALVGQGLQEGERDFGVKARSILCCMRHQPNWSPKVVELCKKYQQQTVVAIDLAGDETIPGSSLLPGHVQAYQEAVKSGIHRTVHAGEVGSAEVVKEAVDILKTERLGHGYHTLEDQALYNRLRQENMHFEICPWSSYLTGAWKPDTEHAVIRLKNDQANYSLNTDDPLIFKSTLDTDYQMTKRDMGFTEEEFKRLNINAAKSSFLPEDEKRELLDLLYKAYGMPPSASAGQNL

[4] = target: AMP deaminase; conditions: Ki as low as; cited from earlier work
[5] = target: T1, adenosine deaminase; conditions: cited from earlier work; remark: listed apart in the source
[6] = tested on: purified human cardiac AMP deaminase; conditions: purified enzyme; cited from earlier work
[7] = tested on: AMP deaminase in isolated cardiomyoctes; conditions: isolated cardiomyocytes; cited from earlier work
[8] = tested on: HepG2 cells; conditions: with IMP
[9] = tested on: AMPD isolated from squirrel liver (AMPD2); assay: AMP deaminase activity by ammonia production; format: biochemical
Experimental: AMP deaminase activity was determined by estimating the production of ammonia by a modification of the method described by Chaney and Marbach. See, Chaney et al., Clin Chem., 1962, 8, 130-132; Ito et al., J Biochem., 1988, 103, 259-262; and Sims et al., Neurobiol Aging., 1998, 19, 385-391. Briefly, the reaction mixture consisted of 25 mM sodium citrate, pH 6.0, 50 mM potassium chloride, and different concentration of AMP. The enzyme reaction was initiated by the addition of the enzyme solution and incubated at 37° C. for 15 min. The reaction was stopped with the addition of the phenol/hypochlorite reagents: Reagent A (100 mM phenol and 0.050 g/L sodium nitroprusside in H2O) was added, followed by reagent B (125 mM sodium hydroxide, 200 mM dibasic sodium phosphate, and 0.1% sodium hypochlorite in H2O) and incubated for 30 min at 25° C. The absorbance of the samples was measured at 625 nm with a spectrophotometer. To determine the absolute specific activity of ammonia production (micromoles ammonia/min), a calibration curve was determined in the range of 5 μM to 1 mM of ammonia.
Using the procedure above, various AMPD2 inhibitors were assayed. […] For this assay AMPD isolated from squirrel liver was used, which only expresses AMPD2 and not the other AMPD isoforms.

[10] = tested on: fructose induced fatty liver; assay: Fructose induced fatty liver and hypertriglyceridemia in rats; format: in vivo, Male Sprague Dawley rats
Text: Fructose only and control diet rats also received daily i.p injections of vehicle. At the end of two weeks rats were sacrificed. […] FIG. 12A. […] FIG. 12B.

[11] = tested on: HepG2 cells; assay: Fructose-stimulated HepG2 cells treated with metformin or AICAR; format: cell-based, human; conditions: for rise in intracellular triglycerides in response to fructose: HepG2, fructose 5 mM; for fall in enoyl CoA hydratase-1 (ECH-1) levels (defect in fat oxidation): HepG2, fructose 5 mM for 72 hrs, densitometry of western blot
[12] = target: T2, AMPD2 (Homo sapiens, UniProt Q01433); assay: AMPD2 regulation by fructose-1-phosphate; format: biochemical; conditions: FIG. 15
T2 sequence (Q01433 1-825): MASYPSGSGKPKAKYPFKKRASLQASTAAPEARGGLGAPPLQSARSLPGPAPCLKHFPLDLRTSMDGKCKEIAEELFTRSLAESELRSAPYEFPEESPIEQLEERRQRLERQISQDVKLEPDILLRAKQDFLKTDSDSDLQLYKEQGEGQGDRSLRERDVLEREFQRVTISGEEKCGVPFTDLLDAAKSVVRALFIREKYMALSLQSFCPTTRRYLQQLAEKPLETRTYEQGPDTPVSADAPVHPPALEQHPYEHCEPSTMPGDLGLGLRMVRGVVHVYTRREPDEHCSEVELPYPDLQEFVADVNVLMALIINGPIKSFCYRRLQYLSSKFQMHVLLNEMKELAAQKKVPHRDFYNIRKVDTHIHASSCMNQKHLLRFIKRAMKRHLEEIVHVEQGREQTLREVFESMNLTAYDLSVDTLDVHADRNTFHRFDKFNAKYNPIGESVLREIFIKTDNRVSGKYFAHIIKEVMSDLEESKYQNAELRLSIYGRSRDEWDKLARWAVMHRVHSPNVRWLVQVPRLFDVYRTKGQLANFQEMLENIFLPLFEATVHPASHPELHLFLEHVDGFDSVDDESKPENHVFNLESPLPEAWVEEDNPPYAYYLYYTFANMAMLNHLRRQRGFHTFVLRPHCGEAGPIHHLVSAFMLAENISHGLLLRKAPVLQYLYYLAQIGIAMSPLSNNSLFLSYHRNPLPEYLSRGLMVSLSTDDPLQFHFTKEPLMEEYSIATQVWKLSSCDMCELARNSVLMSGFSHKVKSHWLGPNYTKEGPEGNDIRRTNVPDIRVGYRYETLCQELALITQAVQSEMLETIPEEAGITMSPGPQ
Text: Fructokinase uses ATP to phosphorylate fructose to fructose-1-phosphate leading to a reduction of ATP and generation of AMP, leading to the activation of AMPD2.

[13] = unstimulated and fructose stimulated hepatocytes

Molecule: sAMPD2: silencing vector pSM2-AMPD2 with 22-base shRNAmir specific for human AMPD2, 5′-ACCTGGGAATCTGCTCATTGTT-3′; stable HepG2 clone #5 (the letters are possibly those of the target site)
triglyceride accumulation in HepG2 cells in response to fructose ([1]; FIG. 6B): blocked | AMPD2 expression ([1]; control HepG2 cells, Western blot): reduced | enoyl CoA hydratase-1 (ECH-1) ([1]; control cells as well as fructose treated cells): stimulated | increased AMPD2 expression ([1]; fructose treated hepatocytes, Western blot): blocked | phosphorylated form of Acetyl CoA Carboxylase (pACC) ([1]; unstimulated and fructose stimulated cells, Western blot): induced | phosphorylated AMPkinase (Thr172) [1, 13]: upregulation | total AMPK [1, 13]: not altered | phosphorylated form of glycogen synthase (pGS) ([1]; unstimulated conditions and in the presence of fructose): induced

Molecule: OC[C@H]1C[C@@H](n2cnc3cncnc32)[C@H](O)[C@@H]1O [carbocyclic nebularine]
AMP deaminase inhibition [2]: block | adenosine deaminase inhibition [3]: block

Molecule: 3-[2-(3-carboxy-4-bromo-5,6,7,8-tetrahydronaphthyl)ethyl]-3,6,7,8-tetrahydroimidazo[4,5-d][1,3]diazepin-8-ol [compound 24b]
Ki [4]: 2 nM | activity for adenosine deaminase [5]: minimal activity | concentration found to inhibit [6]: 0.5 µM | concentration found to inhibit the enzyme [7]: 0.5 mM

Molecule: Oc1ncnc2[nH]ncc12 [allopurinol]
IMP-stimulated triglyceride accumulation [8]: partially blocked | rescue of the IMP-induced reduction in ECoAH [8]: cannot fully rescue

inhibition of AMPD2 activity ([9]; in the presence of 2 mM AMP): 64% | inhibition of AMPD2 activity ([9]; in the presence of 10 mM AMP): 72%
Molecule: OC[C@H]1O[C@@H](n2cnc3c2NC=NC[C@H]3O)C[C@@H]1O [pentostatin, deoxycoformycin]
rise in fasting serum triglycerides in response to fructose ([10]; at two weeks, 0.1 mg/kg daily i.p.): significantly reduced the rise | rise in serum triglycerides in response to a bolus of fructose ([10]; at two weeks, fructose 2 g/kg body weight by gavage): blocked the rise | fatty liver (lipid deposits, Oil Red O stain) ([10]; fructose 20% in water two weeks, 0.1 mg/kg daily i.p.): largely prevented | AMP deaminase inhibition [2]: block

Molecule: OC[C@H]1O[C@@H](n2cnc3c2N=CNC[C@H]3O)[C@H](O)[C@@H]1O [Coformycin]
AMP deaminase inhibition [2]: inhibits

Molecule: NC(=O)c1ncn([C@@H]2O[C@H](CO)[C@@H](O)[C@H]2O)c1N [AICAR, aminoimidazole carboxamide ribonucleotide]
AMPD2 activity ([9]; FIG. 8A): inhibits AMPD2 activity in a dose dependent manner | rise in intracellular triglycerides in response to fructose [11]: prevented the rise | fall in enoyl CoA hydratase-1 (ECH-1) levels (defect in fat oxidation) [11]: reversed

Molecule: CN(C)C(=N)N=C(N)N [metformin]
rise in intracellular triglycerides in response to fructose [11]: prevented the rise | fall in enoyl CoA hydratase-1 (ECH-1) levels (defect in fat oxidation) [11]: reversed

AMPD2 activity [12]: increases
Molecule: O=C(COP(=O)(O)O)[C@@H](O)[C@H](O)[C@H](O)CO [fructose-1-phosphate]

Molecule: OC[C@H]1O[C@@H](c2n[nH]c3cncnc23)[C@H](O)[C@@H]1O [deaminoformycin]
AMP deaminase inhibition [2]: block | adenosine deaminase inhibition [3]: block

— patent US8697628B2, “Methods of using AMPD2 inhibitors for the treatment of fatty liver, obesity and diabetes” (The Regents of the University of Colorado, a body corporate, priority 2010, dated 2014)
